Test results taken from US20070093420A1, “Therapy procedure for drug delivery for trigeminal pain” (priority 2005, published 2007).

Assays:
Format in all cases: in vivo, Sprague-Dawley rats
[1] = test system: pain sensing nerve cells in the trigeminal ganglion; experiment: Nerve impulses of single pain sensing nerve cells in the trigeminal ganglion in response to noxious laser pulses to the face; conditions: rat, 10 nmoles applied to the nose
Protocol: Sprague-Dawley rats (Charles River Laboratories) were anesthetized with isofluorane and a platinum electrode was inserted transcranially into the trigeminal ganglion. Nerve impulses (action potential) were recorded from single pain sensing nerve cells in the trigeminal ganglion in response to application of noxious laser pulses to the face of the rats. After recording responses to several identical laser pulses, 10 nmoles of oxytocin was applied to the nose of the rats. Thereafter, identical laser pulses were once again applied and recorded.

[2] = test system: trigeminal nucleus caudalis wide dynamic range (WDR) neurons; experiment: Electrical stimulation-induced responses of trigeminal nucleus caudalis WDR neurons, single unit extracellular recording; conditions: rat
Protocol: Male Sprague-Dawley rats (Charles River Laboratories) were anesthetized with isoflurane and used in the following experiments. In the anesthetized rats, single unit, extracellular recordings were performed in trigeminal nucleus caudalis while stimulating the ipsilateral facial skin with constant-current bipolar electrical stimulation. Epoxylate-insulated, tungsten microelectrodes (10 MOhm) were used under stereotaxic coordinate control.
Shown are responses (action potentials per 30 stimuli) to repeated stimulation of a rat's face before oxytocin administration (pre-oxytocin). After administration with oxytocin at approximately 0.1 IU, responses were recorded every five minutes for 65 minutes. A second administration of oxytocin at the same dosage was administered at approximately 70 minutes after the first dose. The approximate site of the administration of the electrical stimulation is indicated by the black spot on a map of the rat's face (FIG. 3B).

[3] = test system: second-order neurons in the trigeminal nucleus caudalis; experiment: Electrical stimulus-induced windup of trigeminal nucleus caudalis neurons; conditions: rat, intranasal 0.025 ml of 0.05 mg/ml
Description: Male Sprague-Dawley rats (Charles River Laboratories) were anesthetized with isoflurane and used in the following experiments. […] Needle electrodes were inserted subcutaneously at the site indicated in FIG. 5A by the black spot on the rat's head, and the skin was stimulated at 0.66 Hz, 2 msec duration, 3× C-fiber threshold for >25 times.

[4] = test system: trigeminal nucleus caudalis wide dynamic range (WDR) neurons; experiment: Long-pulse laser-induced responses of trigeminal nucleus caudalis WDR neurons; conditions: rat, intranasal 0.025 ml of 0.05 mg/ml
Protocol: Male Sprague-Dawley rats (Charles River Laboratories) were anesthetized with isoflurane and used in the following experiments. In the anesthetized rats, single unit, extracellular recordings were performed in trigeminal nucleus caudalis while stimulating the ipsilateral facial skin with diode laser or constant-current bipolar electrical stimulation. Epoxylate-insulated, tungsten microelectrodes (10 MOhm) were used under stereotaxic coordinate control. […] Shown are responses (action potentials per second) to an 8 second-duration, 425 mA intensity laser stimulus to the site indicated by the black spot on a map of the rat's face (FIG. 4E).

[5] = Withdrawal latencies after noxious laser thermal stimulation of ears or hindpaws after intranasal administration; conditions: rat, intranasal 10 nmoles/kg, tested from five minutes after final application
Description: One way to test activity of an analgesic agent in a rat model is by treatment-induced changes in latencies (times) of withdrawal in response to noxious heating of the skin, typically using an ear, the face or a hindpaw. Thus, application of coherent or non-coherent (non-laser) radiant heat to the ear, the face or hindpaw will elicit rapid withdrawal movements. […] Transmucosal or transdermal administration of analgesic agents to the trigeminal nerve to reduce trigeminal nerve-associated pain can be tested for regional and/or systemic analgesia. The rostral external part of a rat's ear is innervated by a branch of the mandibular nerve, itself a branch of the trigeminal nerve, thus after treatment an increase in latency to withdrawal time would indicate regional analgesia. […]
Sprague-Dawley rats (Charles River Laboratories) were lightly anesthetized with urethane and placed with minimal restraint on a heating pad to maintain their body temperature at 37° C. […] Baseline withdrawal latencies were measured by delivering 4 separate stimuli with a resting period of approximately 15 minutes between each stimulus. […] As described above, testing sessions were videotaped and analyzed.

[6] = intranasal approximately 0.1 IU, first dose

For `CC[C@H](C)[C@@H]1NC(=O)[C@H](Cc2ccc(O)cc2)NC(=O)[C@@H](N)CSSC[C@@H](C(=O)N2CCC[C@H]2C(=O)N[C@@H](CC(C)C)C(=O)NCC(N)=O)NC(=O)[C@H](CC(N)=O)NC(=O)[C@H](CCC(N)=O)NC1=O` [Oxytocin, Cys-Tyr-Ile-Gln-Asn-Cys-Pro-Leu-Gly], the “neuronal response (average nerve impulses per laser pulse) post- vs pre-treatment (FIG. 2)” value [1] was “significantly (p<0.05) reduced”, the “responses (action potentials per 30 stimuli) after first administration (FIG. 3A)” value ([2]; intranasal approximately 0.1 IU, electrical stimulation of facial skin) was “significant reduction in responses” and the “time after first administration at which significant reduction in responses began” value [2, 6] was 10 min. For the same compound, the “time post treatment until which reduction continued, when responses began to increase” value [2, 6] was 50 min and the “time to significant reduction in responses after second treatment” value ([2]; second dose approximately 0.1 IU at approximately 70 minutes after the first) was at most 10 min.

With `C[C@@H](O)[C@@H]1NC(=O)[C@H](CCCCN)NC(=O)[C@@H](Cc2c[nH]c3ccccc23)NC(=O)[C@H](Cc2ccccc2)NC(=O)[C@@H](NC(=O)[C@H](N)Cc2ccccc2)CSSC[C@@H](C(=O)N[C@H](CO)[C@@H](C)O)NC1=O` [octreotide] the “total number of action potentials during the stimulation period, 10 minutes after administration” value ([3]; 0.66 Hz, 2 msec, 3x C-fiber threshold, 506 before treatment) was 408, the “reduction of total number of action potentials, 10 minutes after administration” value ([3]; versus before treatment) was 19.4% and the “response 25 minutes post-treatment” value [4] was “recovered”. The “response five minutes post-treatment” value ([4]; 8 second 425 mA laser stimulus to face) was “no detectable reduction in response”, the “response at 10 minutes post-treatment” value ([4]; 8 second 425 mA laser stimulus, baseline 42 spikes) was 5 spikes and the “reduction of response at 10 minutes post-treatment” value ([4]; versus pre-treatment baseline) was 88%.

For Tyr-Gly-Gly-Phe-Met [met-enkephalin], the “analgesic effect, ear withdrawal latency (FIG. 1A)” value ([5]; laser stimulation of ears) was “achieved a regional analgesic effect in the head region” and the “systemic analgesic effect, hindpaw withdrawal latency (FIG. 1B)” value ([5]; laser stimulation of hindpaws) was “without a systemic analgesic effect at the hindpaw”.
